Source: PubChem BioAssay (NCI)
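These data come from cells grown in 96-well plates and exposed to compound for 48 hours at five concentrations. The concentration for full growth arrest is given as TGI.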

What was measured:
Assay in all cases: growth of human tumour cells (NCI), 48 h
CAKI-1 renal = tested on: CAKI-1 renal
CCRF-CEM leukemia = tested on: CCRF-CEM leukemia
HL-60(TB) leukemia = tested on: HL-60(TB) leukemia
HOP-62 NSCLC = tested on: HOP-62 NSCLC
M14 melanoma = tested on: M14 melanoma
MCF7 breast = tested on: MCF7 breast
MDA-MB-231 breast = tested on: MDA-MB-231 breast
NCI-H23 lung = tested on: NCI-H23 lung
NCI-H460 lung = tested on: NCI-H460 lung
NCI-H522 lung = tested on: NCI-H522 lung
OVCAR-3 ovarian = tested on: OVCAR-3 ovarian
OVCAR-5 ovarian = tested on: OVCAR-5 ovarian
PC-3 prostate = tested on: PC-3 prostate
RXF 393 renal = tested on: RXF 393 renal
SF-539 CNS = tested on: SF-539 CNS
SK-OV-3 ovarian = tested on: SK-OV-3 ovarian
T-47D breast = tested on: T-47D breast
TK-10 renal = tested on: TK-10 renal
UACC-257 melanoma = tested on: UACC-257 melanoma

SMILES	TGI (CAKI-1 renal)	TGI (CCRF-CEM leukemia)	TGI (HL-60(TB) leukemia)	TGI (HOP-62 NSCLC)	TGI (M14 melanoma)	TGI (MCF7 breast)	TGI (MDA-MB-231 breast)	TGI (NCI-H23 lung)	TGI (NCI-H460 lung)	TGI (NCI-H522 lung)	TGI (OVCAR-3 ovarian)	TGI (OVCAR-5 ovarian)	TGI (PC-3 prostate)	TGI (RXF 393 renal)	TGI (SF-539 CNS)	TGI (SK-OV-3 ovarian)	TGI (T-47D breast)	TGI (TK-10 renal)	TGI (UACC-257 melanoma)
Cc1cc(C)c(C[C@H]2COC(=O)[C@]2(O)Cc2c(C)cc(C)cc2C)c(C)c1	34.6 µM	> 100 µM	42.4 µM	35.8 µM	36.3 µM	34 µM	35.9 µM	47.2 µM	33.3 µM	34.4 µM	31.3 µM	35.9 µM	32.1 µM	25.4 µM	74.4 µM	34.2 µM	25.2 µM	37.6 µM	34.6 µM
COC(=O)C1=C(C(=O)Nc2cccnc2Cl)N(c2ccc(OC)cc2[N+](=O)[O-])C(c2ccc(C)cc2)=CC1c1ccc(OC)cc1OC (stereo unspecified)	> 100 µM	> 36.8 µM	52.5 µM	68 µM	> 72.5 µM	22.4 µM	62.1 µM	> 85 µM	> 79.3 µM	26.3 µM	43.7 µM	> 84.9 µM	> 100 µM	22.2 µM	16.7 µM	62.9 µM	88.3 µM	> 64.2 µM	> 100 µM
CCN1CCC(O)(/C=C/c2ccc(C)cc2)C(C(=O)/C=C/c2ccc(C)cc2)C1 (stereo unspecified)	8.1 µM	5.62 µM	5.15 µM	25.9 µM	9.52 µM	6.36 µM	5.48 µM	18.5 µM	16.7 µM	3.62 µM	18.4 µM	23.2 µM	18.1 µM	10.6 µM	10.3 µM	29.1 µM	9.89 µM	14.4 µM	25.5 µM
O=C(Nc1nncs1)NS(=O)(=O)n1c(=S)sc2ccccc21	> 100 µM	75.7 µM	> 100 µM	> 100 µM	> 100 µM	> 100 µM	> 100 µM	> 100 µM	> 100 µM	> 100 µM	> 100 µM	> 100 µM	> 100 µM	> 100 µM	> 100 µM	> 100 µM	> 100 µM	> 100 µM	> 100 µM
COC(=O)CC1C=CC(C)(OC)OO1 (stereo unspecified)	> 100 µM	97.9 µM	> 100 µM	> 100 µM	> 100 µM	> 100 µM	> 100 µM	> 100 µM	24.4 µM	55.5 µM	> 100 µM	> 100 µM	> 100 µM	> 100 µM	> 100 µM	> 100 µM	> 100 µM	> 100 µM	> 100 µM
CC(C(=O)OCc1ccccc1)(c1ccco1)N1C(=O)OC(c2ccccc2)C1c1ccccc1 (stereo unspecified)	> 100 µM	> 100 µM	> 100 µM	> 100 µM	> 100 µM	> 100 µM	> 100 µM	> 100 µM	> 100 µM	> 100 µM	> 100 µM	> 100 µM	> 100 µM	> 100 µM	> 100 µM	> 100 µM	> 100 µM	> 100 µM	> 100 µM
Cn1c(=O)oc2cc(C(O)CN3CCN(Cc4ccccn4)CC3)c(Cl)cc21 (stereo unspecified)	> 100 µM	> 100 µM	> 100 µM	> 100 µM	> 100 µM	> 100 µM	> 100 µM	> 100 µM	> 100 µM	> 100 µM	> 100 µM	> 100 µM	> 100 µM	> 100 µM	> 100 µM	> 100 µM	> 100 µM	> 100 µM	> 100 µM
CCC(C)C1NC(=O)C(NC(=O)c2c3[nH]c4c(C(=O)NC5C(=O)NC(C(C)CC)C(=O)N6CCCC6C(=O)N(C)CC(=O)N(C)C(C(C)C)C(=O)OC5C)ccc(C)c4oc-3c(C)c(=O)c2=O)C(C)OC(=O)C(C(C)C)N(C)C(=O)CN(C)C(=O)C2CCCN2C1=O (stereo unspecified)	> 91.2 µM	9.81 µM	52.2 µM	> 100 µM	40.5 µM	> 33 µM	55.2 µM	45.3 µM	8.45 µM	5.06 µM	62.9 µM	> 100 µM	> 100 µM	25 µM	37.4 µM	> 100 µM	> 40.5 µM	98.4 µM	38.6 µM
Cc1ccc(-c2n[nH]c(=O)n2/N=C\c2ccc([N+](=O)[O-])cc2)cc1	> 100 µM	> 100 µM	97.6 µM	> 100 µM	> 100 µM	> 100 µM	> 75.9 µM	> 100 µM	> 100 µM	> 100 µM	> 100 µM	> 100 µM	> 100 µM	> 100 µM	> 100 µM	> 100 µM	> 100 µM	> 100 µM	> 100 µM
Cc1cc(C2CC(O)C(CO)O2)c(F)cc1F (stereo unspecified)	> 100 µM	> 100 µM	> 100 µM	> 100 µM	> 100 µM	> 100 µM	> 100 µM	> 100 µM	> 100 µM	> 100 µM	> 100 µM	> 100 µM	> 100 µM	> 100 µM	> 100 µM	> 100 µM	> 100 µM	> 100 µM	> 100 µM
Ic1cccc(/C=C/CN2CCN(CCOC(c3ccccc3)c3ccccc3)CC2)c1	41.4 µM	32.4 µM	30.9 µM	32.6 µM	38.8 µM	30.5 µM	32.4 µM	40 µM	32.4 µM	36.8 µM	32.4 µM	36.9 µM	66.3 µM	27.5 µM	39.8 µM	63.4 µM	33.3 µM	31.6 µM	31.4 µM
c1ccc([P+](CC[P+](c2ccccc2)(c2ccccc2)c2ccccc2)(c2ccccc2)c2ccccc2)cc1	> 100 µM	2.95 µM	55.2 µM	> 100 µM	> 100 µM	> 100 µM	98.4 µM	> 100 µM	35 µM	> 79.5 µM	> 59.7 µM	> 100 µM	60.6 µM	> 83.4 µM	> 44.5 µM	> 100 µM	> 58.8 µM	> 67.3 µM	11 µM
CN1CCc2c(sc3ncn(C)c(=N)c23)C1	> 100 µM	> 100 µM	> 100 µM	> 100 µM	> 100 µM	> 100 µM	> 100 µM	> 100 µM	> 100 µM	> 100 µM	> 100 µM	> 100 µM	> 100 µM	> 100 µM	> 100 µM	> 100 µM	> 100 µM	> 100 µM	> 100 µM
CCCCCCOc1ccc(Nc2c(O)c3c(c(O)c2Cl)C(=O)C=CC3=O)cc1	> 10 µM	8.61 µM	3.74 µM	> 8.71 µM	> 6.68 µM	> 4.88 µM	> 6.11 µM	4.95 µM	6.52 µM	3.98 µM	4.77 µM	> 10 µM	> 10 µM	4.41 µM	> 6.06 µM	> 10 µM	> 10 µM	> 10 µM	> 8.89 µM
CCOC(=O)CO/N=C1/C(c2c(O)[nH]c3ccccc23)=Nc2ccccc21	> 100 µM	> 100 µM	> 100 µM	46 µM	> 100 µM	> 100 µM	43.3 µM	> 100 µM	> 100 µM	> 100 µM	55 µM	> 100 µM	> 100 µM	29.2 µM	> 100 µM	49.2 µM	45.8 µM	> 100 µM	> 100 µM
O=C1C=CC(=O)c2c1ccc1c3ccccc3n(-c3cccc([N+](=O)[O-])c3)c21	5.48 µM	0.82 µM	1.29 µM	> 10 µM	3.86 µM	> 5.93 µM	5.81 µM	6.57 µM	> 10 µM	3.57 µM	4.57 µM	> 10 µM	> 10 µM	4.48 µM	> 6.82 µM	> 10 µM	5.67 µM	4.47 µM	7.38 µM
CC1=CCC(C)=Nc2nc3ccccc3n21	> 100 µM	> 100 µM	> 100 µM	> 100 µM	> 100 µM	> 100 µM	> 100 µM	> 100 µM	> 100 µM	> 100 µM	> 100 µM	> 100 µM	> 100 µM	> 100 µM	> 100 µM	> 100 µM	> 100 µM	> 100 µM	> 100 µM
O=C(/C=C/c1ccc(OCc2cccc(Cl)c2)cc1)NO	34.2 µM	26.6 µM	35.9 µM	> 100 µM	> 100 µM	> 100 µM	44.1 µM	26 µM	41.9 µM	49.4 µM	> 100 µM	71.5 µM	47.4 µM	42.4 µM	> 100 µM	49.3 µM	36.7 µM	67.1 µM	> 100 µM
COc1cc(O)c(C(=O)/C=C/c2ccc(O)cc2)cc1Oc1ccc(/C=C/C(=O)c2ccc(O)cc2O)cc1	38.9 µM	29.4 µM	34 µM	18.7 µM	17.4 µM	22.9 µM	36.7 µM	33.2 µM	30.4 µM	16 µM	17 µM	26.4 µM	22.1 µM	17.5 µM	16.2 µM	15.9 µM	> 50 µM	25.6 µM	23.2 µM
